The values below come from PMC10275055, “Preventing recurrence in Sonic Hedgehog Subgroup Medulloblastoma using the OLIG2 inhibitor CT-179” (Research Square, 2023).

The term bioavailability denotes dose-corrected exposure relative to a reference, in per cent. The inhibition is the drop in the measured response relative to a control, in per cent. Read a low inhibition as a weak effect. A word on the IC50: it is the point on the concentration scale where inhibition reaches its midpoint. Read a low IC50 as inhibition by little substance.

The test system of series [1] is Daoy cells. Nature of the series: Apoptosis and cell cycle analysis in Daoy cells. The conditions noted are these: 1 μM. It is filed as cell-based, human. As to the method:
(§1) Cell proliferation was determined by a CellTiter 96® Non-Radioactive Cell Proliferation Assay (Promega) kit. Absorbance at 490 nm was measured on a Biotek PowerWave (Biotek, USA) plate scanner to obtain raw data. Average absorbance from triplicate wells were plotted against concentration using GraphPad Prism software v.7.0 (GraphPad software). At the indicated time points, cells were stained using FITC-conjugated Annexin V and Annexin V binding buffer (BD Pharmingen™) according to the manufacturer’s instructions. Annexin V or propidium iodide (PI)-positive cells were analyzed using a Fortessa 5 Flow Cytometer (Becton Dickinson) and data was analyzed using FlowJo® software (Tree Star).
Cell cycle analysis was performed as descried previously. Cells were fixed with 70% ice-cold ethanol and subsequently stained with PI and analyzed using a Fortessa 5 Flow Cytometer (Becton Dickinson) and data was analyzed using FlowJo® software (Tree Star).

The nature of series [2]: In vivo pharmacokinetic studies of CT-179 in mice, plasma and brain. On the set-up: species or system mice (C57Bl/J6). The conditions noted are these: mouse; for bioavailability: in vivo, po, PO 20 mg/kg vs IV 1 mg/kg. As to the method: The in vivo pharmacokinetic studies (EXT-240 and EXT-241) were performed under contract by Biodura Inc.
The subject of series [3] is U87-MG glioma cells. The experiment in a line: Cell viability, OLIG2-negative U87-MG. It is filed as cell-based. As to conditions: does not express OLIG2. The procedure:
as §1

The target in series [4] is T1, Discoidin Domain Receptor Tyrosine Kinase 2 (DDR2) (Homo sapiens, UniProt Q16832).
T1 sequence (Q16832 22-855): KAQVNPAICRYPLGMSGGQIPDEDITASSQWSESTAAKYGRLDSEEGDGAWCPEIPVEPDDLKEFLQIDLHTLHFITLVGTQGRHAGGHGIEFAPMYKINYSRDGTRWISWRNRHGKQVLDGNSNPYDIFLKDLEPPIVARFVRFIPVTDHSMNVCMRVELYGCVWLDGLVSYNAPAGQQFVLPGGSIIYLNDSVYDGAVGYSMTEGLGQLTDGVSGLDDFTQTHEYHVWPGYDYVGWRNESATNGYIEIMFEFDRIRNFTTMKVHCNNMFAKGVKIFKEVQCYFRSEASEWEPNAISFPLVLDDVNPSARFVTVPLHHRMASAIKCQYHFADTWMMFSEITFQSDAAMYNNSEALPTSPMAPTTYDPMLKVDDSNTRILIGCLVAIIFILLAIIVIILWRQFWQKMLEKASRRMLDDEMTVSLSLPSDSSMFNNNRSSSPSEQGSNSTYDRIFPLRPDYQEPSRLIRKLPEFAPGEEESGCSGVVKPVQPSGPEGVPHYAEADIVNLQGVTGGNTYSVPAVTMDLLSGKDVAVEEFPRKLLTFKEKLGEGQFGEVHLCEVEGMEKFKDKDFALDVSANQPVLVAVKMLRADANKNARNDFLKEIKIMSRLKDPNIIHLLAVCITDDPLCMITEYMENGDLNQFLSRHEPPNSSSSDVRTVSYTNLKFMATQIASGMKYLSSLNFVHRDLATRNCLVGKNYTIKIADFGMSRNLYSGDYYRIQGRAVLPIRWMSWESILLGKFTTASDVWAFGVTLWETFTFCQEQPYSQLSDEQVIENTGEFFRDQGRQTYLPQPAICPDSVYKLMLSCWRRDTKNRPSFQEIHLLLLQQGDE
The experiment in a line: Kinase profiling (KINOMEscan / SelectScreen), DDR2. It is filed as biochemical. The conditions noted are these: ATP equal to Km. As to the method:
(§2) Effect of CT-179 on protein kinase activity was evaluated using the Thermofisher Scientific SelectScreen Kinase Profiling Service. Over 400 human protein kinases were tested in the presence of 1 μM final concentration of CT-179 at an ATP concentration equal to the known ATP Km for each kinase. The experiment was done by Curtana Pharmaceuticals. Data is presented as percentage of inhibition of enzyme activity. Software CORAL was used to make the kinome tree, which is available from: http://phanstiel-lab.med.unc.edu/CORAL/.

Series [5] has as its system HEK293 cells. Nature of the series: Cell viability, OLIG2-negative HEK293. As to conditions: HEK293, does not express OLIG2. It is filed as cell-based, human. The procedure:
as §1

Series [6] addresses KIT (Homo sapiens, UniProt P10721). Nature of the series: Kinase profiling (KINOMEscan / SelectScreen), KIT. It is filed as biochemical. The conditions noted are these: ATP equal to Km. As to the method: as §2
In series [7] the test system is Med-813 MB cell line. Nature of the series: Cell viability, 7 days treatment, Med-813. It is filed as cell-based. As to conditions: Homo sapiens, 168 h; Med-813, 7 days. As to the method:
as §1

Each structure is given as a SMILES string. Like-named read-outs stand apart in the source and are kept apart here. Bounds are passed on as bounds.

KIT, sequence (P10721 26-976): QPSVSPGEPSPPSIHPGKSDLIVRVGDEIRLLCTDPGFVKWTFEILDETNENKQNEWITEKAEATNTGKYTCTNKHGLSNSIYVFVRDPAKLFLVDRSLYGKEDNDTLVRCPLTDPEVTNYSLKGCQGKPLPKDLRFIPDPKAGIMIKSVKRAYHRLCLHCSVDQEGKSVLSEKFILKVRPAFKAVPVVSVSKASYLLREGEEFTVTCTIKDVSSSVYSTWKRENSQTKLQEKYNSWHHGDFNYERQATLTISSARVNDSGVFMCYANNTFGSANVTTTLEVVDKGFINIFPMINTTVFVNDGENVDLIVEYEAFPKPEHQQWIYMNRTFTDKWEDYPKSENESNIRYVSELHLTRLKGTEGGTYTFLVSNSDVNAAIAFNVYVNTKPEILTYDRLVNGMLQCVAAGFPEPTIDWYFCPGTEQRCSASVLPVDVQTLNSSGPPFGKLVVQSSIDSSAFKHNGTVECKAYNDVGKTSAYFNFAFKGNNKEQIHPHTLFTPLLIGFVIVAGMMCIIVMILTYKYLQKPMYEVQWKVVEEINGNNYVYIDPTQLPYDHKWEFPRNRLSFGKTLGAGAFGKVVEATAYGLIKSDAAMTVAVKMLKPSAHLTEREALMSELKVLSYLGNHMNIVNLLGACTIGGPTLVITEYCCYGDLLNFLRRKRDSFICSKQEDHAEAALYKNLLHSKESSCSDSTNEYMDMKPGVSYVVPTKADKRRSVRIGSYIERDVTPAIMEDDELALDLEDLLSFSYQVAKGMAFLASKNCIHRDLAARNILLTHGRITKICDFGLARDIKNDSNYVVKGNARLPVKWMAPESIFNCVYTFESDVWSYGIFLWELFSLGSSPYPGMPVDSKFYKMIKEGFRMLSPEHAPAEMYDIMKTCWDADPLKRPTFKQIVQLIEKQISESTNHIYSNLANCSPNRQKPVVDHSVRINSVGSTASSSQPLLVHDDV

For the molecule `Cc1cc(NCCCN(C)C)nc(NC(=O)Nc2ccc(Cl)c(Cl)c2)n1` [CT-179], the “apoptosis (cleaved CASPASE-3, Annexin V)” value in series [1] is recorded as “increased apoptosis”. Further, in series [1] (24 hours, single therapy), the cell cycle effect result was “G2/M phase arrest”. In series [2] (brain, 4 hours after single PO dose, 20 mg/kg, read-out: brain to plasma (B/P) ratio, average), the Kp at 4 h amounted to 6.72. The Kp in series [2] (brain, second study, PO doses of 1 and 5 mg/Kg once daily, read-out: estimated brain to plasma ratio) is greater than 10. Also, the bioavailability is 75% in series [2] (20 mg/kg, read-out: bioavailability, mean) and 58 to 91% in series [2] (20 mg/kg, read-out: bioavailability, range estimated). Further, the growth suppression result in series [3] and in series [5] was “not suppressed” in each case. Further, the inhibition at 1 µM was determined as 80% in series [4] and 66% in series [6]. For the same molecule, the IC50 in series [7] came out at 965 nM.
